{"source": "patent US11932632B1", "about": "“N'-(2-(5-phenyl-1,3,4-oxadiazol-2-ylthio)acetoxy)benzo[d][1,3]dioxole-5 carboximidamide as an antimicrobial compound” (KING FAISAL UNIVERSITY, priority 2023, dated 2024)", "type_in_all_cases": "cell-based", "key": {"Staphylococcus aureus": {"tested_on": "Staphylococcus aureus", "test": "Agar plate disc-diffusion, antibacterial activity by inhibition zone", "details": "nutrient agar, 37° C., 48 h, DMSO zone subtracted", "description": "(§1) The agar plate disc-diffusion method was applied. […] The discs were then placed onto the surface of agar plates (nutrient agar for bacteria and Sabouraud's dextrose agar for fungi) seeded with the test organism. Each plate contained 15 mL of the agar medium, previously seeded with 0.2 mL of the broth culture of each organism pregrown for 18 hours. The plates were incubated at 37° C. for 48 h, and 72 h for fungi. The inhibition zones were measured in mm. Discs impregnated with DMSO were used as a control, and its inhibition zone was subtracted from the tested compound actual inhibition zone.\n(§2) The results of the antimicrobial testing can be observed in Tables 1 and 2, below, using ciprofloxacin as a reference."}, "Bacillus Cereus": {"tested_on": "Bacillus Cereus", "test": "Agar plate disc-diffusion, antibacterial activity by inhibition zone", "details": "nutrient agar, 37° C., 48 h, DMSO zone subtracted", "description": "as §1, §2"}, "Escherichia coli": {"tested_on": "Escherichia coli", "test": "Agar plate disc-diffusion, antibacterial activity by inhibition zone", "details": "nutrient agar, 37° C., 48 h, DMSO zone subtracted", "description": "as §1, §2"}, "Pseudomonas aeruginosa": {"tested_on": "Pseudomonas aeruginosa", "test": "Agar plate disc-diffusion, antibacterial activity by inhibition zone", "details": "nutrient agar, 37° C., 48 h, DMSO zone subtracted", "description": "as §1, §2"}, "Aspergillus flavus": {"tested_on": "Aspergillus flavus", "test": "Agar plate disc-diffusion, antifungal activity by inhibition zone", "details": "Sabouraud's dextrose agar, 37° C., 72 h, DMSO zone subtracted", "description": "as §1, §2"}, "[1]": {"tested_on": "Chrysosporium keratinophilum", "test": "Agar plate disc-diffusion, antifungal activity by inhibition zone", "details": "Sabouraud's dextrose agar, 37° C., 72 h, DMSO zone subtracted", "description": "as §1, §2"}, "[2]": {"details": "A = concentration of comp. = 10,000 μL"}, "[3]": {"details": "B = concentration of comp. = 30.000 μL"}, "[4]": {"details": "C = concentration of comp. = 50,000 μL"}}}
{"smiles": "N/C(=N\\OC(=O)CSc1nnc(-c2ccccc2)o1)c1ccc2c(c1)OCO2", "note": "[Compound 3, N′-(2-(5-phenyl-1,3,4-oxadiazol-2-ylthio)acetoxy)benzo[d][1,3]dioxole-5-carboximidamide]", "values": [{"measurement": "inhibition zone, Staphylococcus aureus, A", "setting": "Staphylococcus aureus; [2]", "value": 18, "unit": "mm"}, {"measurement": "inhibition zone, Staphylococcus aureus, B", "setting": "Staphylococcus aureus; [3]", "value": 21, "unit": "mm"}, {"measurement": "inhibition zone, Staphylococcus aureus, C", "setting": "Staphylococcus aureus; [4]", "value": 37, "unit": "mm"}, {"measurement": "inhibition zone, Bacillus Cereus, A", "setting": "Bacillus Cereus; [2]", "value": 25, "unit": "mm"}, {"measurement": "inhibition zone, Bacillus Cereus, B", "setting": "Bacillus Cereus; [3]", "value": 29, "unit": "mm"}, {"measurement": "inhibition zone, Bacillus Cereus, C", "setting": "Bacillus Cereus; [4]", "value": 39, "unit": "mm"}, {"measurement": "inhibition zone, Escherichia coli, A", "setting": "Escherichia coli; [2]", "value": 29, "unit": "mm"}, {"measurement": "inhibition zone, Escherichia coli, B", "setting": "Escherichia coli; [3]", "value": 33, "unit": "mm"}, {"measurement": "inhibition zone, Escherichia coli, C", "setting": "Escherichia coli; [4]", "value": 49, "unit": "mm"}, {"measurement": "inhibition zone, Pseudomonas aeruginosa, A", "setting": "Pseudomonas aeruginosa; [2]", "value": 24, "unit": "mm"}, {"measurement": "inhibition zone, Pseudomonas aeruginosa, B", "setting": "Pseudomonas aeruginosa; [3]", "value": 27, "unit": "mm"}, {"measurement": "inhibition zone, Pseudomonas aeruginosa, C", "setting": "Pseudomonas aeruginosa; [4]", "value": 39, "unit": "mm"}, {"measurement": "inhibition zone, Aspergillus flavus, A", "setting": "Aspergillus flavus; [2]", "value": 21, "unit": "mm"}, {"measurement": "inhibition zone, Aspergillus flavus, B", "setting": "Aspergillus flavus; [3]", "value": 25, "unit": "mm"}, {"measurement": "inhibition zone, Aspergillus flavus, C", "setting": "Aspergillus flavus; [4]", "value": 36, "unit": "mm"}, {"measurement": "inhibition zone, Chrysosporium keratinophilum, A", "setting": "[1]; [2]", "value": 25, "unit": "mm"}, {"measurement": "inhibition zone, Chrysosporium keratinophilum, B", "setting": "[1]; [3]", "value": 27, "unit": "mm"}, {"measurement": "inhibition zone, Chrysosporium keratinophilum, C", "setting": "[1]; [4]", "value": 42, "unit": "mm"}]}
